Test results from ChEMBL document CHEMBL1201862, “PubChem BioAssay data set” (2004).
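Tested at 5 concentrations; 48 h exposure; 96-well plates; endpoints linearly interpolated, else capped at highest concentration. GI50 = concentration required for 50% inhibition of growth.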 Activity calls are given as the source filed them. Cut-off read from the data, not from the text of the source: active = GI50 up to about 1.1 µM and inactive = higher.

How the values were obtained:
Assay in all cases: DTP human tumour cell line panel, 48 h
T47D = test system: T47D
U-251 = test system: U-251
SN12C = test system: SN12C
NCI-H522 = test system: NCI-H522
SK-MEL-2 = test system: SK-MEL-2
HT-29 = test system: HT-29
HCT-116 = test system: HCT-116
MCF7 = test system: MCF7
SF-539 = test system: SF-539
SNB-75 = test system: SNB-75
SW-620 = test system: SW-620
Hs-578T = test system: Hs-578T
LOX IMVI = test system: LOX IMVI
UACC-62 = test system: UACC-62
KM12 = test system: KM12
SNB-19 = test system: SNB-19
M14 = test system: M14
CAKI-1 = test system: CAKI-1
UO-31 = test system: UO-31
COLO 205 = test system: COLO 205
786-0 = test system: 786-0
MDA-N = test system: MDA-N
DU-145 = test system: DU-145
SK-MEL-5 = test system: SK-MEL-5
TK-10 = test system: TK-10
SK-MEL-28 = test system: SK-MEL-28
NCI-H226 = test system: NCI-H226
A549 = test system: A549
OVCAR-5 = test system: OVCAR-5
HOP-62 = test system: HOP-62
NCI/ADR-RES = test system: NCI/ADR-RES
ACHN = test system: ACHN
HL-60 = test system: HL-60
NCI-H460 = test system: NCI-H460
OVCAR-8 = test system: OVCAR-8
SF-268 = test system: SF-268
MDA-MB-231 = test system: MDA-MB-231
A498 = test system: A498
MOLT-4 = test system: MOLT-4
PC-3 = test system: PC-3
SK-OV-3 = test system: SK-OV-3
NCI-H23 = test system: NCI-H23
HCT-15 = test system: HCT-15
RXF 393 = test system: RXF 393
SF-295 = test system: SF-295
MDA-MB-435 = test system: MDA-MB-435
EKVX = test system: EKVX
BT-549 = test system: BT-549
IGROV-1 = test system: IGROV-1
UACC-257 = test system: UACC-257
Malme-3M = test system: Malme-3M
CCRF-CEM = test system: CCRF-CEM
OVCAR-4 = test system: OVCAR-4
HOP-92 = test system: HOP-92
SR = test system: SR
RPMI-8226 = test system: RPMI-8226
HCC 2998 = test system: HCC 2998
OVCAR-3 = test system: OVCAR-3
K562 = test system: K562

CCOC(=O)C1(C/C=C/CCl)CCCC1=O (stereo not drawn)
GI50 (T47D): 23.1 µM (inactive) | GI50 (U-251): 24.5 µM (inactive) | GI50 (SN12C): 24.1 µM (inactive) | GI50 (NCI-H522): 23.7 µM (inactive) | GI50 (SK-MEL-2): 19 µM (inactive) | GI50 (HT-29): 24.2 µM (inactive) | GI50 (HCT-116): 17.2 µM (inactive) | GI50 (MCF7): 16.4 µM (inactive) | GI50 (SF-539): 20.7 µM (inactive) | GI50 (SNB-75): 19.8 µM (inactive) | GI50 (SW-620): 20.3 µM (inactive) | GI50 (Hs-578T): 44 µM (inactive) | GI50 (LOX IMVI): 14.9 µM (inactive) | GI50 (UACC-62): 14.1 µM (inactive) | GI50 (KM12): 20 µM (inactive) | GI50 (SNB-19): 23 µM (inactive) | GI50 (M14): 18.1 µM (inactive) | GI50 (CAKI-1): 29.6 µM (inactive) | GI50 (UO-31): 20 µM (inactive) | GI50 (COLO 205): 26 µM (inactive) | GI50 (786-0): 22.8 µM (inactive) | GI50 (MDA-N): 17.9 µM (inactive) | GI50 (DU-145): 31.1 µM (inactive) | GI50 (SK-MEL-5): 15.6 µM (inactive) | GI50 (TK-10): 21.1 µM (inactive) | GI50 (SK-MEL-28): 23 µM (inactive) | GI50 (NCI-H226): 14.3 µM (inactive) | GI50 (A549): 21.5 µM (inactive) | GI50 (OVCAR-5): 17.8 µM (inactive) | GI50 (HOP-62): 20.5 µM (inactive) | GI50 (NCI/ADR-RES): 19.5 µM (inactive) | GI50 (ACHN): 15.3 µM (inactive) | GI50 (HL-60): 38.2 µM (inactive) | GI50 (NCI-H460): 30.1 µM (inactive) | GI50 (OVCAR-8): 20.8 µM (inactive) | GI50 (SF-268): 25.4 µM (inactive) | GI50 (MDA-MB-231): 16.6 µM (inactive) | GI50 (A498): 25.2 µM (inactive) | GI50 (MOLT-4): 35.1 µM (inactive) | GI50 (PC-3): 30.5 µM (inactive) | GI50 (SK-OV-3): 33.3 µM (inactive) | GI50 (NCI-H23): 18.8 µM (inactive) | GI50 (HCT-15): 18.9 µM | GI50 (RXF 393): 16.8 µM (inactive) | GI50 (SF-295): 37.2 µM (inactive) | GI50 (MDA-MB-435): 20.3 µM (inactive) | GI50 (EKVX): 19.5 µM (inactive) | GI50 (BT-549): 18.2 µM (inactive) | GI50 (IGROV-1): 18.3 µM (inactive) | GI50 (UACC-257): 35.2 µM (inactive) | GI50 (Malme-3M): 22.5 µM (inactive) | GI50 (CCRF-CEM): 19.5 µM (inactive) | GI50 (OVCAR-4): 29.6 µM (inactive)

Cc1ccc2c(c1)C(=C(C#N)C#N)CCCS2(=O)=O
GI50 (T47D): > 100 µM (inactive) | GI50 (U-251): > 100 µM (inactive) | GI50 (SN12C): > 100 µM (inactive) | GI50 (HOP-92): > 100 µM (inactive) | GI50 (SK-MEL-2): > 100 µM (inactive) | GI50 (HT-29): > 100 µM (inactive) | GI50 (HCT-116): > 100 µM (inactive) | GI50 (SF-539): > 100 µM (inactive) | GI50 (SNB-75): > 100 µM (inactive) | GI50 (SW-620): > 100 µM (inactive) | GI50 (Hs-578T): > 100 µM (inactive) | GI50 (LOX IMVI): > 100 µM (inactive) | GI50 (UACC-62): > 100 µM (inactive) | GI50 (KM12): > 100 µM (inactive) | GI50 (SNB-19): > 100 µM (inactive) | GI50 (M14): > 100 µM (inactive) | GI50 (CAKI-1): > 100 µM (inactive) | GI50 (SR): > 100 µM (inactive) | GI50 (UO-31): > 100 µM (inactive) | GI50 (COLO 205): > 100 µM (inactive) | GI50 (786-0): > 100 µM (inactive) | GI50 (RPMI-8226): > 100 µM (inactive) | GI50 (MDA-N): > 100 µM (inactive) | GI50 (DU-145): > 100 µM (inactive) | GI50 (TK-10): > 100 µM (inactive) | GI50 (SK-MEL-28): > 100 µM (inactive) | GI50 (NCI-H226): > 100 µM (inactive) | GI50 (A549): > 100 µM (inactive) | GI50 (OVCAR-5): > 100 µM (inactive) | GI50 (HOP-62): > 100 µM (inactive) | GI50 (NCI/ADR-RES): > 100 µM (inactive) | GI50 (ACHN): > 100 µM (inactive) | GI50 (HL-60): > 100 µM (inactive) | GI50 (HCC 2998): > 100 µM (inactive) | GI50 (NCI-H460): > 100 µM (inactive) | GI50 (OVCAR-8): > 100 µM (inactive) | GI50 (SF-268): > 100 µM (inactive) | GI50 (MDA-MB-231): > 100 µM (inactive) | GI50 (A498): > 100 µM (inactive) | GI50 (MOLT-4): > 100 µM (inactive) | GI50 (PC-3): > 100 µM (inactive) | GI50 (SK-OV-3): > 100 µM (inactive) | GI50 (OVCAR-3): > 100 µM (inactive) | GI50 (NCI-H23): > 100 µM (inactive) | GI50 (HCT-15): > 100 µM | GI50 (RXF 393): > 100 µM (inactive) | GI50 (SF-295): > 100 µM (inactive) | GI50 (MDA-MB-435): > 100 µM (inactive) | GI50 (EKVX): > 100 µM (inactive) | GI50 (BT-549): > 100 µM (inactive) | GI50 (K562): > 100 µM (inactive) | GI50 (IGROV-1): > 100 µM (inactive) | GI50 (UACC-257): > 100 µM (inactive) | GI50 (CCRF-CEM): > 100 µM (inactive) | GI50 (OVCAR-4): > 100 µM (inactive)
